Entries after “also recorded” stand apart in the source; their conditions may differ.
system: RPE1 cells; assay: Analysis of mitosis and daughter cell fate, RPE1; type: cell-based, human; conditions: RPE1, only mitotic events with clear missegregation, FIG. 18B
Experimental: Analysis of mitosis and daughter cell fate. […] Cells were seeded into 96-well cycloolefin plates at 5000 cells/well, 8-10 hours before imaging. Movies were acquired on the CV1000 with a 40×0.95 NA U-PlanApo objective. The imaging chamber was maintained at 37° C. and 5% CO2. Image acquisition and data analysis were performed using CellVoyager software. 20 fields/well were imaged. For HeLa and NIH/3T3 cells, 5×2 μm z-sections in the GFP (25% power, 125 ms, 30% gain) and RFP (25% power, 100 ms, 30% gain) channels were captured in each field, at 5-minute intervals for 24 hours. For RPE1 cells, 5×2 μm z-sections in the GFP (20% power, 100 ms, 30% gain) and RFP (25% power, 100 ms, 30% gain) channels were captured in each field, at 5-minute intervals for 8 hours. To track RPE1 daughter cell fate, imaging was then switched to 3×4 μm z-sections in the RFP channel only, at 10-minute intervals for 48 hours. Mitosis was measured from nuclear envelope breakdown to anaphase onset (or arrest). Results represent combined measurements of 100 mother cells per condition from 2-4 independent experiments.
To study the correlation between mother cell prometaphase duration and daughter cell fate, RPE1 cells co-expressing centrin-GFP and H2B-RFP were seeded into 96-well cycloolefin plates at 5000 cells/well, 8-10 hours before imaging. Cells were treated with 80 nM nocodazole and immediately imaged on the CV1000 system with a 40×0.95 NA U-PlanApo objective. The imaging chamber was maintained at 37° C. and 5% CO2. 20 fields/well were imaged. 5×2 Lm z-sections in the GFP (20% power, 100 ms, 30% gain) and RFP (25% power, 100 ms, 30% gain) channels were captured in each field, at 5-minute intervals for 6 hours. The plate was then removed from the microscope, and wells were washed 6 times with warm medium. The plate was returned to the microscope, and imaging was resumed, capturing 3×4 Lm z-sections in the RFP channel only, at 10-minute intervals for 50 hours. To study the effect of chromosome missegregation on daughter cell fate, cells were treated with 1 LM NMS-P715 to inhibit the spindle assembly checkpoint kinase Mps1, then imaged as described above. Only mitotic events with clear missegregation (lagging chromosomes and subsequent formation of daughter cells with micronuclei) were analyzed. For both experiments, results represent combined measurements of 100 mother cells from 2 independent experiments.

Row | Structure (SMILES) | percentage of daughters not dividing within 48 hours
1 | CCc1cccc(CC)c1NC(=O)c1nn(C)c2c1CCc1cnc(Nc3ccc(C(=O)NC4CCN(C)CC4)cc3OC(F)(F)F)nc1-2 [NMS-P715] | 11.4%

biological target: T1, human Plk4 kinase domain (aa 2-275) (Homo sapiens, UniProt O00444); assay: Plk4 kinase assay (ADP-Glo); type: biochemical; conditions: Table 1
T1 construct: purified 6×His-tagged human Plk4 kinase domain (aa 2-275); 6xHis; made in house; host or cells: E. coli
T1 sequence (O00444 2-275): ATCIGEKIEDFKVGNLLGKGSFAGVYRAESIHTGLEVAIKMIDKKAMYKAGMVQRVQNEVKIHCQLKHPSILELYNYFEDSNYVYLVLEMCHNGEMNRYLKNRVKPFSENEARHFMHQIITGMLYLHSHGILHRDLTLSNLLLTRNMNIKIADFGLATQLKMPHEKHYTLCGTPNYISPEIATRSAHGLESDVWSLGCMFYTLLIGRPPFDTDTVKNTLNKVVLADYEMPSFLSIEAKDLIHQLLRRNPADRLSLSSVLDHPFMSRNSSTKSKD
How it was run: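 Enzyme at 2.5-10 nM final, pH 8.0, reacted 4-16 hours at 25° C; ADP generation read by ADP-Glo luminescence. Ki derived from IC50 by Cheng-Prusoff or, for tight binders, Copeland formalism.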

Row | Structure (SMILES) | IC50
2 | COc1c(Nc2cc(C)[nH]n2)nc(Sc2ccc(S(=O)(=O)Cc3cccc(C#N)c3F)cc2F)nc1N1CCCCC1 | < 1000 nM
3 | Cc1cc(Nc2nc(Sc3ccc(NC(=O)C4CC4)cc3)nc(N3CCOCC3)c2C)n[nH]1 | < 1000 nM
4 | CCOc1c(Nc2cc(C)[nH]n2)nc(Sc2ccc(NC(=O)C3CCCC3)cc2)nc1N1CCN(C(=O)CCOC)CC1 | 100 to 1000 nM
5 | COc1c(Nc2cc(C)[nH]n2)nc(Sc2ccc(S(=O)(=O)Cc3cccc(C)c3)cc2)nc1N1CCN(CCN(C)C)CC1 | < 1000 nM
6 | COc1c(Nc2cc(C)[nH]n2)nc(Sc2ccc(S(=O)(=O)Cc3ccccc3)cc2)nc1N1CCN(C2CCN(C)CC2)CC1 | < 1000 nM
7 | COc1c(Nc2cc(C)[nH]n2)nc(Sc2ccc(NC(C)=O)cc2)nc1N1CCC(N(C)C)CC1 | < 1000 nM
8 | COc1c(Nc2cc(C)[nH]n2)nc(Sc2ccc(S(=O)(=O)Cc3cccc(C(=O)N(C)C)c3F)cc2F)nc1N1CCOCC1 | < 1000 nM
9 | COc1c(Nc2cc(C)[nH]n2)nc(Sc2ccc(NC(C)=O)cc2)nc1N1CCN(CCN(C)C)CC1C (centres unmarked) | > 1000 nM
10 | COc1c(Nc2cc(C)[nH]n2)nc(Sc2ccc(S(=O)(=O)Cc3cccc([N+](=O)[O-])c3F)cc2F)nc1N1CCN(C)CC1 | < 1000 nM
11 | COc1c(Nc2cc(C)[nH]n2)nc(Sc2ccc(S(=O)(=O)Cc3ccc([N+](=O)[O-])cc3)cc2)nc1N1CCN(CCN(C)C)CC1 | < 1000 nM
12 | COc1c(Nc2cc(C)[nH]n2)nc(Sc2ccc(S(=O)(=O)Cc3ccccc3[N+](=O)[O-])cc2)nc1N1CCN(CCN(C)C)CC1 | < 1000 nM
13 | COc1c(Nc2cc(C)[nH]n2)nc(Sc2ccc(S(C)(=O)=O)cc2)nc1N1CCC(CCN(C)C)CC1 | < 1000 nM
14 | COc1c(Nc2cc(C)[nH]n2)nc(Sc2ccc(S(=O)(=O)C3(c4cccc([N+](=O)[O-])c4F)CC3)cc2F)nc1N1CCC(CN)CC1 | < 1000 nM
15 | COc1c(Nc2cc[nH]n2)nc(Sc2ccc(S(=O)(=O)Cc3ccccc3)cc2)nc1N1CCN(CCN(C)C)CC1 | < 1000 nM
16 | COc1c(Nc2cc(C)[nH]n2)nc(Sc2ccc(S(=O)(=O)Cc3cccc([N+](=O)[O-])c3)cc2)nc1N1CCOCC1 | < 1000 nM
17 | COc1c(Nc2cc(C)[nH]n2)nc(Sc2ccc(S(=O)(=O)CCN(C)C)cc2)nc1N1CCN(CCN(C)C)CC1 | < 1000 nM
18 | CCOc1c(Nc2cc(C)[nH]n2)nc(Sc2ccc(NC(=O)C3CCCC3)cc2)nc1N1CCN(CCOC)CC1 | 100 to 1000 nM
19 | COc1c(Nc2cc(C)[nH]n2)nc(Sc2ccc(C(=O)Cc3cccc([N+](=O)[O-])c3F)cc2F)nc1N1CCOCC1 | < 1000 nM
20 | CC(=O)Nc1ccc(Sc2nc(Nc3cc(C)[nH]n3)c(Cl)c(N3CCC(O)CC3)n2)cc1 | < 1000 nM
21 | CCS(=O)(=O)c1ccc(Sc2nc(Nc3cc(C)[nH]n3)c(OC)c(N3CCOCC3)n2)c(Cl)c1 | < 1000 nM
22 | CCOc1c(Nc2cc(C)[nH]n2)nc(SC)nc1N1CCN(CCN(C)C)CC1 | 100 to 1000 nM
23 | CCOc1c(Nc2cc(C)[nH]n2)nc(Sc2ccc(NC(=O)C3CCCC3)cc2)nc1N1CCN(CC2CC2)CC1 | 100 to 1000 nM

system: full-length mouse Plk4-YFP; assay: Plk4 stabilization assay, Plk4-YFP DLD-1 cells; type: cell-based, human; conditions: 250 nM, 24 hours
Experimental: Plk4 stabilization assay. Expression was induced in Plk4-YFP DLD-1 cells using 1 μg/ml doxycycline. At the same time, cells were treated with the indicated concentrations of compounds. Cells were incubated for 24 hours before harvesting for Western blotting (see below).
Western blotting. […] Cell extracts were stored at −80° C. until use.

Row | Structure (SMILES) | Plk4-YFP stabilization
24 | COc1ccc2c(c1)[C@]1(C[C@H]1c1ccc3c(/C=C/c4ccc(CN5C[C@@H](C)O[C@@H](C)C5)cc4)n[nH]c3c1)C(=O)N2 (relative stereo) [CFI-400945, (1R,2S).2-(3-((E).4-(((cis).2,6-dimethylmorpholino)methyl)styryl). 1H.indazol-6-yl)-5′-methoxyspiro[cyclopropane-1,3′-indolin]-2′-one, reference compound] | only slight Plk4-YFP stabilization

system: HeLa cells; assay: Quantification of centrosome numbers from fixed samples, HeLa; type: cell-based, human; conditions: HeLa, 50 or 100 nM
Experimental: Quantification of centrosome numbers from fixed samples. Cells were seeded onto poly-D-lysine-coated coverslips (Neuvitro) in 12-well plates at least 8 hours before fixation. At the required timepoints for each experiment, cells were washed once with PBS and fixed in 100% methanol (−20° C., 5 minutes). Fixed cells were washed with PBS, blocked with PBS+4% BSA+0.1% Triton X-100, and stained with primary antibodies against γ-tubulin and Cep192, which localize to the pericentriolar material and proximal to the outer centriole wall, respectively (47, 48). Alexa488-labeled anti-mouse secondary antibody (against anti-γ-tubulin) and Alexa647-labeled anti-rabbit secondary antibody (against anti-Cep192) were both used at 1.5 jag/mL. Samples were mounted onto slides with Prolong Gold antifade reagent (Life Technologies). Images of fixed interphase cells were acquired on a Nikon Eclipse E800 with a 60×1.4 NA PlanApo objective and ORCA-ER camera (Hamamatsu) using Metamorph software (Molecular Devices). Quantification of foci was performed manually. A focus was defined as a bona-fide centrosome if it was positive for both γ-tubulin and Cep192 (true for >95% of foci).

Row | Structure (SMILES) | nuclear morphology and division
25 | COc1ccc2c(c1)[C@]1(C[C@H]1c1ccc3c(/C=C/c4ccc(CN5C[C@@H](C)O[C@@H](C)C5)cc4)n[nH]c3c1)C(=O)N2 (relative stereo) [CFI-400945, (1R,2S).2-(3-((E).4-(((cis).2,6-dimethylmorpholino)methyl)styryl). 1H.indazol-6-yl)-5′-methoxyspiro[cyclopropane-1,3′-indolin]-2′-one, reference compound] | become grossly multinuclear

same assay, conditions: HeLa, 50 or 100 nM, 3 days

Row | Structure (SMILES) | effect on centrosome number
26 | COc1ccc2c(c1)[C@]1(C[C@H]1c1ccc3c(/C=C/c4ccc(CN5C[C@@H](C)O[C@@H](C)C5)cc4)n[nH]c3c1)C(=O)N2 (relative stereo) [CFI-400945, (1R,2S).2-(3-((E).4-(((cis).2,6-dimethylmorpholino)methyl)styryl). 1H.indazol-6-yl)-5′-methoxyspiro[cyclopropane-1,3′-indolin]-2′-one, reference compound] | causes centrosome amplification; also recorded: does not deplete centrioles from cells; also recorded: induces centrosome amplification

Reference: US10752612B2, “PLK4 inhibitors” (LUDWIG INSTITUTE FOR CANCER RESEARCH LTD, priority 2015, dated 2020)
